ChEMBL document CHEMBL1124376, “Topically active carbonic anhydrase inhibitors. 2. Benzo[b]thiophenesulfonamide derivatives with ocular hypotensive activity” (J Med Chem, 1989)
Activity calls are given as the source filed them. The calls are words filed in the database; no cut-off is given here.

Target: T1, Carbonic anhydrase 2 (Homo sapiens, UniProt P00918)
Assay: Concentration of inhibitor required to reduce the rate of carbonic anhydrase II catalyzed CO2 hydration by 50%.
Conditions: read-out: I50

SMILES | IC50
CC(C)(C)C(=O)Oc1ccc2cc(S(N)(=O)=O)sc2c1 | 2.6 nM
CC(=O)Oc1ccc2cc(S(N)(=O)=O)sc2c1 | 4 nM

Test system: Oryctolagus cuniculus
Assay: Reduction in maximum Intra ocular pressure in the rabbit model of ocular hypertension, when treated with a minimum effective oral dose of 1.25 mg/kg
Type: functional, Eye
Conditions: not given

SMILES | Activity
CC(=O)Nc1nnc(S(N)(=O)=O)s1 [ACETAZOLAMIDE] | -6.3 mmHg
NS(=O)(=O)c1cc2ccc(O)cc2s1 | -7.7 mmHg

Test system: Oryctolagus cuniculus
Assay: Reduction in maximum Intra ocular pressure in the rabbit model of ocular hypertension, when treated with a minimum effective oral dose of 10 mg/Kg; NE is No Effect
Type: functional, organism-based
Conditions: Eye

SMILES | Activity
CC(=O)Nc1nnc(S(N)(=O)=O)s1 [ACETAZOLAMIDE] | inactive

Target: T1, Carbonic anhydrase 2
Assay: not given
Conditions: not given

SMILES | IC50
COc1ccc2sc(S(N)(=O)=O)cc2c1 | 23 nM
CC(=O)OCc1ccc2sc(S(N)(=O)=O)cc2c1 | 10 nM
Nc1ccc2cc(S(N)(=O)=O)sc2c1 | 10 nM
NS(=O)(=O)c1cc2c(O)cccc2s1 | 12 nM
COc1cccc2sc(S(N)(=O)=O)cc12 | 12 nM
NS(=O)(=O)c1cc2cc(CO)ccc2s1 | 9 nM
COc1ccc2cc(S(N)(=O)=O)sc2c1 | 8.8 nM
COCc1ccc2sc(S(N)(=O)=O)cc2c1 | 9 nM
NS(=O)(=O)c1cc2cccc(O)c2s1 | 11 nM
NS(=O)(=O)c1cc2ccc(OCC(=O)O)cc2s1 | 14 nM
CN(C)Cc1ccc2sc(S(N)(=O)=O)cc2c1 | 12 nM
NS(=O)(=O)c1cc2ccc(OP(=O)(O)O)cc2s1 | 100 nM
CC(C)COC(=O)Oc1ccc2cc(S(N)(=O)=O)sc2c1 | 5.6 nM
CC(=O)c1ccc2cc(S(N)(=O)=O)sc2c1 | 6 nM
CN(C)C(=O)Oc1ccc2sc(S(N)(=O)=O)cc2c1 | 5 nM
CC(C)(C)NCC(O)COc1ccc2cc(S(N)(=O)=O)sc2c1 (configuration not stated) | 18 nM
COc1cccc2cc(S(N)(=O)=O)sc12 | 50 nM
CN(C)CCSCc1ccc2sc(S(N)(=O)=O)cc2c1 | 15 nM
NS(=O)(=O)c1cc2ccccc2s1 | 5.2 nM
NS(=O)(=O)c1cc2cc(CN3CCOCC3)ccc2s1 | 15 nM
NS(=O)(=O)c1cc2cc(O)ccc2s1 | 6.2 nM
CC(=O)Nc1ccc2cc(S(N)(=O)=O)sc2c1 | 4.8 nM
NS(=O)(=O)c1cc2ccc(OS(=O)(=O)O)cc2s1 | 6.8 nM
CC(C)(C)N1CC(COc2ccc3cc(S(N)(=O)=O)sc3c2)OC1=O (configuration not stated) | 8 nM

Test system: Oryctolagus cuniculus
Assay: Reduction in maximum Intra ocular pressure in the rabbit model of ocular hypertension, when treated with a minimum effective topical dose of 5%
Conditions: not given

SMILES | Activity
CC(=O)/N=c1/sc(S(N)(=O)=O)nn1C [METHAZOLAMIDE] | -5.1 mmHg

Test system: Oryctolagus cuniculus
Assay: Reduction in maximum Intra ocular pressure in the rabbit model of ocular hypertension, when treated with a minimum effective topical dose of 10%
Conditions: not given

SMILES | Activity
NS(=O)(=O)c1cc(Cl)c(Cl)c(S(N)(=O)=O)c1 [DICHLORPHENAMIDE] | -4.7 mmHg

Test system: Oryctolagus cuniculus
Assay: Reduction in maximum Intra ocular pressure in the rabbit model of ocular hypertension, when treated with a minimum effective topical dose of 0.10%
Conditions: not given

SMILES | Activity
NS(=O)(=O)c1cc2ccc(O)cc2s1 | -6.6 mmHg

Test system: Oryctolagus cuniculus
Assay: as above
Conditions: not given
Remark: another data set of the same source

SMILES | Activity
CC(=O)Oc1ccc2cc(S(N)(=O)=O)sc2c1 | -5.3 mmHg

Test system: Oryctolagus cuniculus
Assay: Reduction in maximum Intra ocular pressure in the rabbit model of ocular hypertension, when treated with a minimum effective topical dose of 0.25%
Conditions: not given

SMILES | Activity
CC(C)(C)C(=O)Oc1ccc2nc(S(N)(=O)=O)sc2c1 | -7.8 mmHg

Test system: Oryctolagus cuniculus
Assay: Reduction in maximum Intra ocular pressure in the rabbit model of ocular hypertension, when treated with a minimum effective topical dose of 0.05%
Conditions: not given

SMILES | Activity
NS(=O)(=O)c1cc2ccc(O)cc2s1 | -5.6 mmHg
CC(C)(C)C(=O)Oc1ccc2cc(S(N)(=O)=O)sc2c1 | -4.7 mmHg

Test system: Oryctolagus cuniculus
Assay: Reduction in maximum Intra ocular pressure in the rabbit model of ocular hypertension, when treated with a minimum effective topical dose of 10%; NE means No Effect
Conditions: Eye

SMILES | Activity
CCOc1ccc2nc(S(N)(=O)=O)sc2c1 | inactive
